Assay results: US20250136552A1, “ANTAGONISTS OF CAV 2.3” (LARIO THERAPEUTICS LIMITED, priority 2021, published 2025)
Like-named read-outs stand apart in the source and are kept apart here.

Legend:
Cav2.3 [1] = biological target: T1, Cav2.3 (Homo sapiens, UniProt Q15878); assay: Human Cav2.3 channel calcium-influx assay; assay type: cell-based; conditions: HEK-293 T-Rex/Kir2.1 cells with inducible Cav2.3e-β4-α2δ1; Fluo8 fluorescence; 8-point dose response from 30 μM; no pluronic acid; read-out: Cav2.3 (pIC50) (converted)
Method: HEK-293 T-Rex cells were transfected with pcDNA3.1-Kir2.1 to generate a stable cell line. After antibiotic selection, the obtained stable pools were analysed using FLIPR^TETRA(membrane potential assay), and a limiting dilution was performed and a HEK-293 T-Rex/Kir2.1 clone was selected. The clone was transfected with pcDNA3.1-Cav2.3e and pBud-Cav-β4-α2δ1 to generate a stable cell line where the Cav2.3e expression is inducible. After antibiotic selection, functional clone pool analysis and two successive limiting dilutions, the final clone underwent a qPCR analysis and a biophysical and pharmacological validation using patch-clamp.
A compound plate, containing 10 test compounds in eight-points dose response with n=4, was prepared. Test compounds dose response curves were prepared in automated fashion in 100% DMSO at CyBio Felix and starting from a stock solution in 100% DMSO; a defined volume was serially moved into destination wells pre-filled with the desired DMSO volume; stock solution concentration volumes were dependent on the final compounds concentrations to be tested and the final DMSO content used in the assay. For the assay test compounds dose response curves ranged from 30 μM and half log dilution with 0.3% final DMSO. In order to obtain the 8-points dose response curve all the concentrations were created by starting from a 10 mM DMSO stock solution and then moving 9.5 μL into a destination well pre-filled with 20.5 μL of 100% DMSO and repeating this step seven times. This initial step was done into 96 MTP plates, 10 compounds/plate. One 384 MTP was then reformatted to contain all the 10 compounds at 8 concentrations, quadruplicate data points. This so obtained 384 MTP compound plate served as source plate in a “mother to child” process with a CyBi®-Well dispenser in which 0.7 μL of compounds were moved into a destination plate pre-filled with 57.6 μL of Tyrode's buffer 0 mM K^+, thus obtaining 4× concentrated compounds solution. In columns 1-2 and 23-24 the control wells were added. Both “source” compound plate and “destination” compound plate were barcoded and a relationship between the two plates was thus generated.
The day before the experiment, cells were detached by gentle wash with DPBS, followed by 5 min incubation at 37° C. with Trypsin solution. Detached cells were diluted with OptiMEM+Doxycycline at 0.2 μg/mL, counted and plated in Poly-D-Lysine coated black/clear bottom (15.000 c/well in 20 μl/well) by the use of a MATRIX WellMate dispenser. Plates were placed into a humidified incubator at 37° C. with 5% CO2 until the experimental day. 24 h after seeding 10 μL/well of 1.5× Fluo8 NW dye solution prepared in Tyrode's buffer 0 mM K^+ were added on top of the seeding medium. Cell plates were incubated for 40-60 min at RT in the dark. We then Injected off-line 10 μL/well of test compounds and controls 4× concentrated in Tyrode's Buffer 0 mM K+ with the CyBi®-Well instrument. Cell plates were incubated 3 minutes at RT. Finally, we injected 20 μL/well of 3× concentrated activator solution (K20-Na130-Ca2 buffer: 20 mM KCl, 130 mM NaCl, 2 mM CaCl2, 10 mM HEPES, 10 mM Glucose, final concentrations, prepared starting from “K0-Na150-Ca2” and “K150-Na0-Ca2” buffers) at FDSS7000EX instrument and read emitted fluorescence for 130 seconds.
Data analysis was performed with Genedata Screener® software and reported compounds activity as % effect in relation to the normalization standards. The Kinetic Response Value (KRV) is calculated as follows:
KRV=Maximal fluorescence recorded from second 5 to second 130 minus baseline fluorescence, computed as average from second 1 to second 2, of the kinetic trace. The KRV was normalized versus Neutral Controls and Inhibitor Controls in order to obtain the Activity[%] for each well. […] Therefore, the compound activity values were scaled (based on the two references) to a common range (two-point normalization). […]
Target sequence in this assay (Q15878 1-2270 isoform Q15878-3): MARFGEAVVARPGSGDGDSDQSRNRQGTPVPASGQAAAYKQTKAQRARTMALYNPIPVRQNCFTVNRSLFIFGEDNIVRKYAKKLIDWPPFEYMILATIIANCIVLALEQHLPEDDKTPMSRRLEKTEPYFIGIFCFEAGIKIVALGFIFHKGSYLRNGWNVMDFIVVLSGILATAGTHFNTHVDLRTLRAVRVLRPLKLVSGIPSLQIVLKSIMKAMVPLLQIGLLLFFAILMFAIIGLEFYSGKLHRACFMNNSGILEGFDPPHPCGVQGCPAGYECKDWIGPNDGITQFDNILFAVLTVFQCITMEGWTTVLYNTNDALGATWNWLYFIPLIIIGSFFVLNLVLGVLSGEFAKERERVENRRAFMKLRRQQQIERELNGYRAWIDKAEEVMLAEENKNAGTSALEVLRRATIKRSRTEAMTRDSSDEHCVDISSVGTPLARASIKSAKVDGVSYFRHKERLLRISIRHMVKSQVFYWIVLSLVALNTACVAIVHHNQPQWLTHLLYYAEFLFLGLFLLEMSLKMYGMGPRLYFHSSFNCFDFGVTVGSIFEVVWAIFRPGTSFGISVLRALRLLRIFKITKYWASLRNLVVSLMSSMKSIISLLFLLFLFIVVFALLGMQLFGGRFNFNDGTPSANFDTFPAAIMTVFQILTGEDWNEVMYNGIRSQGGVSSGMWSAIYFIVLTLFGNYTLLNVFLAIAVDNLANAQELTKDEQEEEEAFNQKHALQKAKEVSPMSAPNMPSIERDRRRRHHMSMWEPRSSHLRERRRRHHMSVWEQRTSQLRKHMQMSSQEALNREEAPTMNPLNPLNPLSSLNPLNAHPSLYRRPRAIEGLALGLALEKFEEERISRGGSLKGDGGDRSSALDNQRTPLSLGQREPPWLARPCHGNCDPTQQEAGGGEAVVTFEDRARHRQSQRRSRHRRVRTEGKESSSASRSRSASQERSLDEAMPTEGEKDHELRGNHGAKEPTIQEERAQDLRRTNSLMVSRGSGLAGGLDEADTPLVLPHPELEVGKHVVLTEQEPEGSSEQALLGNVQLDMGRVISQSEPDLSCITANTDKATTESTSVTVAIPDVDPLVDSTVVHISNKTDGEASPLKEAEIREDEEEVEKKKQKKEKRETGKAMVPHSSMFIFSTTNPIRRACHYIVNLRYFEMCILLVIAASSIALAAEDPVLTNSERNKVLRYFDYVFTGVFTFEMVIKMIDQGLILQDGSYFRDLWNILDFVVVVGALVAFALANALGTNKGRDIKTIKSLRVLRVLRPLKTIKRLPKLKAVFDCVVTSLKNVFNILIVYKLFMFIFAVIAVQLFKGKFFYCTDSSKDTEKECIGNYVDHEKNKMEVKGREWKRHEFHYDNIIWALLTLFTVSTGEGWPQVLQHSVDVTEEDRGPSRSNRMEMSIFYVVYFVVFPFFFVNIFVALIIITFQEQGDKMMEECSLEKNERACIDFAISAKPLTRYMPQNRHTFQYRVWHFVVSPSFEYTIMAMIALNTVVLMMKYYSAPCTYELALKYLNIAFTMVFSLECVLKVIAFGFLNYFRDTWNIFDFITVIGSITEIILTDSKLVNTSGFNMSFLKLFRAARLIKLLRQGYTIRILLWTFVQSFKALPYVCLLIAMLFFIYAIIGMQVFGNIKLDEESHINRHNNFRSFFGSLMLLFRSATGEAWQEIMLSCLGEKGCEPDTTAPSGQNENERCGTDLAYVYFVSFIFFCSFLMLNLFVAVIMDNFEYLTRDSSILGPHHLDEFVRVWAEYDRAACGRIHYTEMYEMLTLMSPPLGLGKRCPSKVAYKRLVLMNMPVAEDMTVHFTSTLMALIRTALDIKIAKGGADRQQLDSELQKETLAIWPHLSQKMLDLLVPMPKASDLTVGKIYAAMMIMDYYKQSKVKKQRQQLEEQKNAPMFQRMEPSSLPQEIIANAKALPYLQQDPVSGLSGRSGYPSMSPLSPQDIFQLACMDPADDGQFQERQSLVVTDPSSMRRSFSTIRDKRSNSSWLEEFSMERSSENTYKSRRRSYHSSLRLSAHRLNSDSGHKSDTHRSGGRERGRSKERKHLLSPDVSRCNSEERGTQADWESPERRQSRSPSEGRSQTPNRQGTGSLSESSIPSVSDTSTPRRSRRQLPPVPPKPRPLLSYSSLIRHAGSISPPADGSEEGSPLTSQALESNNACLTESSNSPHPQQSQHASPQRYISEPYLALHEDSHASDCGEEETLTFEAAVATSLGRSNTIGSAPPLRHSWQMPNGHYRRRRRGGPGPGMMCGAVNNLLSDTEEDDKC

[2] = biological target: Cav2.3 dependent current in HEK-293 T-Rex/Kir2.1/Cav2.3e-β4-α2δ1 cells (Homo sapiens, UniProt Q15878); assay: Whole-cell patch clamp assay (QPatch 16X); assay type: cell-based; conditions: whole-cell voltage clamp, room temperature, inward current density; mean ± S.E; read-out: Cav2.3 (pIC50) (converted)
Method: HEK-293 T-Rex/Kir2.1/Cav2.3e-β4-α2δ1 cells were seeded 96 hours before experiment and doxycycline at 0.2 μg/mL was added 24 hours before experiment. Just before the experiments cells were washed twice with D-PBS w/o Ca2+/Mg2+ and gently detached from the flask with Detachin. Cells were then re-suspended in the suspension solution (25 mL EX-CELL ACF CHO medium; 0.25 mL of 100× Penicillin/Streptomycin) and placed on the Automated Patch-clamp platform (QPatch 16X).
Standard whole-cell voltage clamp experiments were performed at room temperature using the single hole technology and the following intracellular and extracellular solutions (ICS and ECS, respectively) were used. ICS (mM): CsF 60, CsCl 50, NaCl 10, EGTA 20, BAPTA 5, HEPES 10, NaGTP 0.3, MgATP 5 (pH 7.2; ECS (mM): NMDG-Cl 120, BaCl2 20, HEPES 10, EGTA 7 (pH 7.4). After establishment of the seal and the passage in the whole-cell configuration, the Cav2.3 dependent current was evoked by challenging the cells with the following voltage protocol: the plasma membrane was held at −80 mV then a 50 ms-long depolarizing pulse at 0 mV, followed by a 50 ms-long hyperpolarizing pulse at −100 mV were applied and finally the plasma membrane was held back to −80 mV. This voltage protocol was applied every 10 seconds. Cav2.3 dependent current was first measured in control condition (vehicle, 0.1% DMSO), in the presence of increasing concentration of the compound under investigation and finally SNX 482 was added to fully block any R-type Cav2.3 dependent current.
For data collection, the Sophion proprietary software was used while the analysis was performed off-line using Excel and GraphPad Prism. The inward current (Area Under Curve) measured during each depolarizing pulse was normalized to cell membrane capacitance (Cm) to obtain the average inward current density in each condition (control, compound under investigation and SNX 482). Then, the inhibitory effect of the compound under investigation was evaluated as % of the remaining inward current, normalized to the internal control. […] All data were expressed as mean±S.E

Cav2.3 [3] = biological target: T1, Cav2.3; conditions: read-out: IC50 against Cav2.3; cited from earlier work
Target sequence in this assay (Q15878 whole entry): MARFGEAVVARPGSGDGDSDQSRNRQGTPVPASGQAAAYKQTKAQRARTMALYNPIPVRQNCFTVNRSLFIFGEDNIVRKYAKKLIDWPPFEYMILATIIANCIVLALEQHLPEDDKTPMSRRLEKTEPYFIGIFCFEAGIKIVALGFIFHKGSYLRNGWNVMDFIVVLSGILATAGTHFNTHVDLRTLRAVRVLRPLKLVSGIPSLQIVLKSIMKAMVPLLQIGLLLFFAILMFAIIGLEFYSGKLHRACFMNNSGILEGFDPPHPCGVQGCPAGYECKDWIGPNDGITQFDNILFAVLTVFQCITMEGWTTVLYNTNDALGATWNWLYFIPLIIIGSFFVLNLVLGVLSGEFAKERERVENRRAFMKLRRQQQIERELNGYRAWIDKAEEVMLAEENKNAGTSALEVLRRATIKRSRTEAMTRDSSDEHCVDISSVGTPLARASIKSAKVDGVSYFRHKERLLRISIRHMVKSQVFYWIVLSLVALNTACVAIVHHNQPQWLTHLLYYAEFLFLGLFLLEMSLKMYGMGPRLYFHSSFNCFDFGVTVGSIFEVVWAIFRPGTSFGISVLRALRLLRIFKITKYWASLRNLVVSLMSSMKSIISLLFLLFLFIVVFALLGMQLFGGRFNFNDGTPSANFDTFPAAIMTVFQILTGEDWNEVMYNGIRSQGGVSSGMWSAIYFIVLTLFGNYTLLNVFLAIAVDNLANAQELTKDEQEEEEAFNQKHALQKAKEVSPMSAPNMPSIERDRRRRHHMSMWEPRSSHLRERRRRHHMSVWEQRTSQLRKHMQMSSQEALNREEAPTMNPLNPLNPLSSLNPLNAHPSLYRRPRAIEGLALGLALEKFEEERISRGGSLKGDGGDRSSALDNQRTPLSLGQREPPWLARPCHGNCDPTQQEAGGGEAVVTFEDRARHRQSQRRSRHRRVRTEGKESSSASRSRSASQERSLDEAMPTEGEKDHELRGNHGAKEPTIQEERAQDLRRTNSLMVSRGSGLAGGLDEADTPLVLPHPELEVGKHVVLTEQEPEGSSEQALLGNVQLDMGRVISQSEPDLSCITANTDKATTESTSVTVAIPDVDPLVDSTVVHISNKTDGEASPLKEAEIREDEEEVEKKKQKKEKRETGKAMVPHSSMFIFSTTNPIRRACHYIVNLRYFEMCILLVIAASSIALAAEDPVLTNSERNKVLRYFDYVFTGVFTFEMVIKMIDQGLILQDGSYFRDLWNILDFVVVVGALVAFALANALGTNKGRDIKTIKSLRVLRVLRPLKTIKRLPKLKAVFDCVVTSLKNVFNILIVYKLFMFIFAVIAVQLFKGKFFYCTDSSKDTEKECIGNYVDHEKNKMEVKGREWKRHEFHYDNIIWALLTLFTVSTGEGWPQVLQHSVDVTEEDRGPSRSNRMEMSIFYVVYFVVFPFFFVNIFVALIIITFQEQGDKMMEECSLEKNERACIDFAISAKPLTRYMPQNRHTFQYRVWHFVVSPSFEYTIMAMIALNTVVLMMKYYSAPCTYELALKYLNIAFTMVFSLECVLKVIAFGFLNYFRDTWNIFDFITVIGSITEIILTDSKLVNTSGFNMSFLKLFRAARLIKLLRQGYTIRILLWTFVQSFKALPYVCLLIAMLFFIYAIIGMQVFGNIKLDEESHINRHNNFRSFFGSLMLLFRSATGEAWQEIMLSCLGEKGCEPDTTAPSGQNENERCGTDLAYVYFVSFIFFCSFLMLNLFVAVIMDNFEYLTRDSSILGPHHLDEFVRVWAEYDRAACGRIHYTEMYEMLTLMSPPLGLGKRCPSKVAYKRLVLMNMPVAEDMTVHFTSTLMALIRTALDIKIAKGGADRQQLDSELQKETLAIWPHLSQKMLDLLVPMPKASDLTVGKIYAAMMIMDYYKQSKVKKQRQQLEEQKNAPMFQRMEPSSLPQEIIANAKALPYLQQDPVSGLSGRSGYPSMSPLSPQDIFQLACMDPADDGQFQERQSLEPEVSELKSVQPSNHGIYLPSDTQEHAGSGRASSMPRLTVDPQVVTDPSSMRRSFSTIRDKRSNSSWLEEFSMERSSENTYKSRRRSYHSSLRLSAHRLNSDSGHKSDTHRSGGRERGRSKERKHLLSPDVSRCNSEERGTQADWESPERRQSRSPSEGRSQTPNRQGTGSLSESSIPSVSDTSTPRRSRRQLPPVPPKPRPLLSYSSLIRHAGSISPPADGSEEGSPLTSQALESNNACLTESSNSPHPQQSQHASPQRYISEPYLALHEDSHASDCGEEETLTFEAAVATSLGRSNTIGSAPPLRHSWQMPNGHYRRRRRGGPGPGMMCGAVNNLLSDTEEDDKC

Cav2.3 dependent current in HEK-293 T-Rex/Kir2.1/Cav2.3e-β4-α2δ1 cells, sequence (Q15878 1-2270 isoform Q15878-3): as the sequence (Q15878 1-2270 isoform Q15878-3) above

IC50 (Cav2.3 [1])	IC50 [2]	Molecule	IC50 (Cav2.3 [3])
724 nM	1120 nM	CCN([C@@H](C)c1ccccc1)S(=O)(=O)c1ccc2c(c1)CN(C(=O)C1CC1)CC2 [Example 14, (S)-2-(cyclopropanecarbonyl)-N-ethyl-N-(1-phenylethyl)-1,2,3,4-tetrahydroisoquinoline-7-sulfonamide]	–
513 nM	204 nM	CC(C)C(=O)N1CCc2ccc(S(=O)(=O)N(CCF)C(c3ccc(F)cc3)C(F)(F)F)cc2C1 (stereo not drawn) [Example 49, N-(2-fluoroethyl)-2-isobutyryl-N-(2,2,2-trifluoro-1-(4-fluorophenyl)ethyl)-1,2,3,4-tetrahydroisoquinoline-7-sulfonamide]	–
398 nM	87.1 nM	CCN([C@H](c1ccc(F)cc1)C(F)(F)F)S(=O)(=O)c1ccc2c(c1)CN(C(=O)C(C)C)CC2 (stereo in doubt) [Example 6, N-ethyl-2-isobutyryl-N-(2,2,2-trifluoro-1-(4-fluorophenyl)ethyl)-1,2,3,4-tetrahydroisoquinoline-7-sulfonamide]	–
1580 nM	372 nM	CCN([C@@H](C)c1ccc(C(F)(F)F)cc1)S(=O)(=O)c1ccc2c(c1)CCN(C(=O)C(C)C)C2 [Example 20, (S)-N-ethyl-2-isobutyryl-N-(1-(4-(trifluoromethyl)phenyl)ethyl)-1,2,3,4-tetrahydroisoquinoline-6-sulfonamide]	–
661 nM	251 nM	CCN([C@@H](C)c1ccc(C(F)(F)F)cc1)S(=O)(=O)c1ccc2c(c1)CN(C(=O)C(C)C)CC2 [Example 1, (S)-N-ethyl-2-isobutyryl-N-(1-(4-(trifluoromethyl)phenyl)ethyl)-1,2,3,4-tetrahydroisoquinoline-7-sulfonamide]	–
2140 nM	–	CCN([C@@H](C)c1ccc(F)cc1)S(=O)(=O)c1ccc2c(c1)C(C)(C)CN(C(=O)C1CC1)C2 [Example 23, (S)-2-(cyclopropanecarbonyl)-N-ethyl-N-(1-(4-fluorophenyl)ethyl)-4,4-dimethyl-1,2,3,4-tetrahydroisoquinoline-6-sulfonamide]	–
676 nM	525 nM	CC(C)C(=O)N1CCc2ccc(S(=O)(=O)N(C)[C@H](c3ccc(F)cc3)C(F)(F)F)cc2C1 [Example 9, (R)-2-isobutyryl-N-methyl-N-(2,2,2-trifluoro-1-(4-fluorophenyl)ethyl)-1,2,3,4-tetrahydroisoquinoline-7-sulfonamide]	–
–	–	SNX-482 (GVDKAGCRYMFGGCSVNDDCCPRLGCHSLFSYCAWDLTFSD; UniProt P56854 1-41, looked up)	15 to 30 nM
417 nM	–	CC(C)C(=O)N1CCc2ccc(S(=O)(=O)N(CCF)[C@H](c3ccc(F)cc3)C(F)(F)F)cc2C1 [Example 51, (R)-N-(2-fluoroethyl)-2-isobutyryl-N-(2,2,2-trifluoro-1-(4-fluorophenyl)ethyl)-1,2,3,4-tetrahydroisoquinoline-7-sulfonamide]	–
575 nM	–	CCN([C@@H](C)c1ccc(F)cc1)S(=O)(=O)c1ccc2c(c1)CN(C(=O)C(C)(C)F)CC2 [Example 19, (S)-N-ethyl-2-(2-fluoro-2-methylpropanoyl)-N-(1-(4-fluorophenyl)ethyl)-1,2,3,4-tetrahydroisoquinoline-7-sulfonamide]	–
912 nM	–	CCN([C@@H](C)c1ccc(F)cc1)S(=O)(=O)c1ccc2c(c1)CN(C(=O)C1CC1)CC2 [Example 13, (S)-2-(cyclopropanecarbonyl)-N-ethyl-N-(1-(4-fluorophenyl)ethyl)-1,2,3,4-tetrahydroisoquinoline-7-sulfonamide]	–
1450 nM	–	CCN([C@@H](C)c1ccccc1)S(=O)(=O)c1ccc2c(c1)CCN(C(=O)C(C)C)C2 [Example 25, (S)-N-ethyl-2-isobutyryl-N-(1-phenylethyl)-1,2,3,4-tetrahydroisoquinoline-6-sulfonamide]	–
537 nM	93.3 nM	CCN([C@@H](C)c1ccc(F)cc1)S(=O)(=O)c1ccc2c(c1)CN(C(=O)C(C)C)CC2 [Example 12, (S)-N-ethyl-N-(1-(4-fluorophenyl)ethyl)-2-isobutyryl-1,2,3,4-tetrahydroisoquinoline-7-sulfonamide]	–
2040 nM	–	CCN(C(c1ccc(F)cc1)C(F)(F)F)S(=O)(=O)c1ccc2c(c1)CN(C(=O)C1COC1)CC2 (stereo not drawn) [Example 44, N-ethyl-2-(oxetane-3-carbonyl)-N-(2,2,2-trifluoro-1-(4-fluorophenyl)ethyl)-1,2,3,4-tetrahydroisoquinoline-7-sulfonamide]	–
